Laboratory results published in patent US20160158200A1, “Combinations of Hepatitis C Virus Inhibitors” (priority 2013, published 2016).

Test system: HCV genotype-1a variant with glutamine 30 changed to glutamate in the NS5A protein
Type: cell-based
Settings: test compound titrated with BMS-790052 fixed at 200 nM; genotype 1a Q30E replicon
In short: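 Synergy was assessed by combining several fixed amounts of an NS5A-targeting compound with a titration of the second compound of interest.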

Row | SMILES | Fold-Synergistic 1a (Q30E)
1 | CC(C)(C)[C@H](NC(=O)c1ccccc1F)c1nc(-c2ccc(-c3ccc(-c4c[nH]c([C@@H](NC(=O)c5ccccc5F)C(C)(C)C)n4)cc3)cc2)c[nH]1 [Compound P-23] | >100 fold
2 | CC(C)(C)[C@H](NC(=O)c1ccncc1F)c1nc(-c2ccc(-c3ccc(-c4c[nH]c([C@@H](NC(=O)c5ccncc5F)C(C)(C)C)n4)cc3)cc2)c[nH]1 [Compound P-24] | >100 fold
3 | CC(C)(C)[C@H](NC(=O)c1ccccc1OC(F)F)c1nc(-c2ccc(-c3ccc(-c4c[nH]c([C@@H](NC(=O)c5ccccc5OC(F)F)C(C)(C)C)n4)cc3)cc2)c[nH]1 [Compound P-25] | >100 fold
4 | CCOC(C)(C)C(=O)N[C@H](c1nc(-c2ccc(-c3ccc(-c4c[nH]c([C@@H](NC(=O)C(C)(C)OCC)C(C)(C)C)n4)cc3)cc2)c[nH]1)C(C)(C)C [Compound P-26] | >100 fold
5 | COC1(C(=O)N[C@H](c2nc(-c3ccc(-c4ccc(-c5c[nH]c([C@@H](NC(=O)C6(OC)CC6)C(C)(C)C)n5)cc4)cc3)c[nH]2)C(C)(C)C)CC1 [Compound P-27] | >100 fold
6 | COc1ccccc1C(=O)N[C@H](c1nc(-c2ccc(-c3ccc(-c4c[nH]c([C@@H](NC(=O)c5ccccc5OC)C(C)(C)C)n4)cc3)cc2)c[nH]1)C(C)(C)C [Compound P-28] | >100 fold
7 | CCOc1ccccc1C(=O)N[C@H](c1nc(-c2ccc(-c3ccc(-c4c[nH]c([C@@H](NC(=O)c5ccccc5OCC)C(C)(C)C)n4)cc3)cc2)c[nH]1)C(C)(C)C [Compound P-29] | >100 fold
8 | CC(C)(C)[C@H](NC(=O)C1(C(F)(F)F)CC1)c1nc(-c2ccc(-c3ccc(-c4c[nH]c([C@@H](NC(=O)C5(C(F)(F)F)CC5)C(C)(C)C)n4)cc3)cc2)c[nH]1 [Compound P-30] | >100 fold
9 | CC(C)(C)[C@H](NC(=O)C(C)(C)C(F)(F)F)c1nc(-c2ccc(-c3ccc(-c4c[nH]c([C@@H](NC(=O)C(C)(C)C(F)(F)F)C(C)(C)C)n4)cc3)cc2)c[nH]1 [Compound P-31] | >100 fold
10 | CC(C)(C(=O)N[C@H](c1nc(-c2ccc(-c3ccc(-c4c[nH]c([C@@H](NC(=O)C(C)(C)C(F)F)C(C)(C)C)n4)cc3)cc2)c[nH]1)C(C)(C)C)C(F)F [Compound P-32] | >100 fold
11 | CC(C)(C)[C@H](NC(=O)C1(O)CCC(F)(F)CC1)c1nc(-c2ccc(-c3ccc(-c4c[nH]c([C@@H](NC(=O)C5(O)CCC(F)(F)CC5)C(C)(C)C)n4)cc3)cc2)c[nH]1 [Compound P-33] | >100 fold
12 | COC1(C(=O)N[C@H](c2nc(-c3ccc(-c4ccc(-c5c[nH]c([C@@H](NC(=O)C6(OC)CCC(F)(F)CC6)C(C)(C)C)n5)cc4)cc3)c[nH]2)C(C)(C)C)CCC(F)(F)CC1 [Compound P-34] | >100 fold
13 | CN1CC(F)(F)C[C@H]1C(=O)N[C@H](c1nc(-c2ccc(-c3ccc(-c4c[nH]c([C@@H](NC(=O)[C@@H]5CC(F)(F)CN5C)C(C)(C)C)n4)cc3)cc2)c[nH]1)C(C)(C)C [Compound P-35] | >100 fold
14 | CN1CCC[C@H]1C(=O)N[C@H](c1nc(-c2ccc(-c3ccc(-c4c[nH]c([C@@H](NC(=O)[C@@H]5CCCN5C)C(C)(C)C)n4)cc3)cc2)c[nH]1)C(C)(C)C [Compound P-36] | >10 fold
15 | CC(C)(C)[C@H](NC(=O)C1(CO)CCC(F)(F)CC1)c1nc(-c2ccc(-c3ccc(-c4c[nH]c([C@@H](NC(=O)C5(CO)CCC(F)(F)CC5)C(C)(C)C)n4)cc3)cc2)c[nH]1 [Compound P-37] | >100 fold
16 | CC(C)(C)[C@H](NC(=O)C1(CF)CCC(F)(F)CC1)c1nc(-c2ccc(-c3ccc(-c4c[nH]c([C@@H](NC(=O)C5(CF)CCC(F)(F)CC5)C(C)(C)C)n4)cc3)cc2)c[nH]1 [Compound P-38] | >100 fold
17 | CC(C)(C)[C@H](NC(=O)C1(F)CCC(F)(F)CC1)c1nc(-c2ccc(-c3ccc(-c4c[nH]c([C@@H](NC(=O)C5(F)CCC(F)(F)CC5)C(C)(C)C)n4)cc3)cc2)c[nH]1 [Compound P-39] | >100 fold
18 | CC(C)(C)[C@H](NC(=O)C12CCC(F)(CC1)CC2)c1nc(-c2ccc(-c3ccc(-c4c[nH]c([C@@H](NC(=O)C56CCC(F)(CC5)CC6)C(C)(C)C)n4)cc3)cc2)c[nH]1 [Compound P-40] | >100 fold
19 | COCC1(C(=O)N[C@H](c2nc(-c3ccc(-c4ccc(-c5c[nH]c([C@@H](NC(=O)C6(COC)CCC(F)(F)CC6)C(C)(C)C)n5)cc4)cc3)c[nH]2)C(C)(C)C)CCC(F)(F)CC1 [Compound P-41] | >100 fold
20 | CC(C)(C)[C@H](NC(=O)[C@H]1C[C@@H]2CC(F)(F)C[C@@H]2C1)c1nc(-c2ccc(-c3ccc(-c4c[nH]c([C@@H](NC(=O)[C@H]5C[C@@H]6CC(F)(F)C[C@@H]6C5)C(C)(C)C)n4)cc3)cc2)c[nH]1 [Compound P-42] | >100 fold

Row | SMILES | Fold-Synergistic 1a (Q30E)
21 | CC(C)(C)[C@H](NC(=O)[C@@H]1C[C@@H]2CC(F)(F)C[C@@H]2C1)c1nc(-c2ccc(-c3ccc(-c4c[nH]c([C@@H](NC(=O)[C@@H]5C[C@@H]6CC(F)(F)C[C@@H]6C5)C(C)(C)C)n4)cc3)cc2)c[nH]1 [Compound P-43] | >100 fold
22 | CC(C)(C)[C@H](NC(=O)C1CC2CCC(C1)C2(F)F)c1nc(-c2ccc(-c3ccc(-c4c[nH]c([C@@H](NC(=O)C5CC6CCC(C5)C6(F)F)C(C)(C)C)n4)cc3)cc2)c[nH]1 (stereo partly drawn) [Compound P-44] | >100 fold
23 | CC(C)(C)[C@H](NC(=O)C1CC2CCC(C1)C2(F)F)c1nc(-c2ccc(-c3ccc(-c4c[nH]c([C@@H](NC(=O)C5CC6CCC(C5)C6(F)F)C(C)(C)C)n4)cc3)cc2)c[nH]1 (stereo partly drawn) [Compound P-45] | >100 fold
24 | CC(C)(C)[C@H](NC(=O)C1CC2(C1)CC(F)(F)C2)c1nc(-c2ccc(-c3ccc(-c4c[nH]c([C@@H](NC(=O)C5CC6(C5)CC(F)(F)C6)C(C)(C)C)n4)cc3)cc2)c[nH]1 [Compound P-46] | >100 fold
25 | CC1(C(=O)N[C@H](c2nc(-c3ccc(-c4ccc(-c5c[nH]c([C@@H](NC(=O)C6(C)CCCCC6)C(C)(C)C)n5)cc4)cc3)c[nH]2)C(C)(C)C)CCCCC1 [Compound P-47] | >100 fold
26 | CC(C)CC(=O)N[C@H](c1nc(-c2ccc(-c3ccc(-c4nc([C@@H](NC(=O)CC(C)C)C(C)C)[nH]c4Cl)cc3)cc2)c(Cl)[nH]1)C(C)C [Compound P-48] | >100 fold
27 | COc1cccc2c(C(=O)N3[C@@H]4C[C@@H]4C[C@H]3c3ncc(-c4ccc(-c5ccc(-c6cnc([C@@H]7C[C@H]8C[C@H]8N7C(=O)c7nc(Cl)cc8c(OC)cccc78)[nH]6)cc5)cc4)[nH]3)nc(Cl)cc12 [Compound P-49] | >100 fold
28 | CC(C)CC(=O)N1[C@@H]2C[C@@H]2C[C@H]1c1nc(-c2ccc(-c3ccc(-c4c[nH]c([C@@H]5C[C@H]6C[C@H]6N5C(=O)CC(C)C)n4)cc3)cc2)c[nH]1 [Compound P-50] | <10 fold
29 | CC(C)CC(=O)N1C[C@@H](C)C[C@H]1c1nc(-c2ccc(-c3ccc(-c4c[nH]c([C@@H]5C[C@H](C)CN5C(=O)CC(C)C)n4)cc3)cc2)c[nH]1 [Compound P-51] | <10 fold
30 | CC(C)C(c1ncc(-c2ccc(-c3ccc(-c4cnc(C(C(C)C)N5CCCCC5=O)[nH]4)cc3)cc2)[nH]1)N1CCCCC1=O (stereo not drawn) [Compound P-52] | >10 fold
31 | COC(=O)N[C@H]1CCN([C@H](c2ncc(-c3ccc(-c4ccc(-c5cnc([C@H](C(C)C)N6CC[C@H](NC(=O)OC)C6=O)[nH]5)cc4)cc3)[nH]2)C(C)C)C1=O.O=C(O)C(F)(F)F.O=C(O)C(F)(F)F [Compound P-53] | <10 fold
32 | CC(C)CC(=O)N[C@@H](c1nc(-c2ccc(-c3ccc(-c4c[nH]c([C@H](NC(=O)CC(C)C)C(C)C)n4)cc3)cc2)c[nH]1)C(C)C [Compound P-54.1] | >100 fold
33 | CC(C)CC(=O)N(C)C(c1ncc(-c2ccc(-c3ccc(-c4cnc(C(C(C)C)N(C)C(=O)CC(C)C)[nH]4)cc3)cc2)[nH]1)C(C)C (stereo not drawn) [Compound P-54] | >100 fold
34 | CC(C)[C@H](NC(=O)CC(C)(C)C)c1ncc(-c2ccc(-c3ccc(-c4cnc([C@@H](NC(=O)CC(C)(C)C)C(C)C)[nH]4)cc3)cc2)[nH]1 [Compound P-56] | >100 fold
35 | CC(C)[C@H](NC(=O)CC12CC3CC(CC(C3)C1)C2)c1ncc(-c2ccc(-c3ccc(-c4cnc([C@@H](NC(=O)CC56CC7CC(CC(C7)C5)C6)C(C)C)[nH]4)cc3)cc2)[nH]1 [Compound P-57] | >100 fold
36 | CC(C)[C@H](NC(=O)CC1CCOCC1)c1ncc(-c2ccc(-c3ccc(-c4cnc([C@@H](NC(=O)CC5CCOCC5)C(C)C)[nH]4)cc3)cc2)[nH]1 [Compound P-58] | >10 fold
37 | CC(C)[C@H](NC(=O)C1CCOCC1)c1ncc(-c2ccc(-c3ccc(-c4cnc([C@@H](NC(=O)C5CCOCC5)C(C)C)[nH]4)cc3)cc2)[nH]1 [Compound P-59] | >100 fold
38 | CC(C)[C@H](NC(=O)C12CC3CC(CC(C3)C1)C2)c1ncc(-c2ccc(-c3ccc(-c4cnc([C@@H](NC(=O)C56CC7CC(CC(C7)C5)C6)C(C)C)[nH]4)cc3)cc2)[nH]1 [Compound P-60] | >100 fold
39 | CC[C@H](C(=O)N[C@H](c1ncc(-c2ccc(-c3ccc(-c4cnc([C@@H](NC(=O)[C@@H](CC)c5ccccc5)C(C)C)[nH]4)cc3)cc2)[nH]1)C(C)C)c1ccccc1 [Compound P-61] | >100 fold
